Reference: ChEMBL document CHEMBL3045013, “Suppression of pine wilt disease by an antibacterial agent, oxolinic acid” (2010)
Activity calls are given as the source filed them. No cut-off for these calls is given here.

Tests used:
[1] = tested on: Bursaphelenchus xylophilus; assay: (§1) Nematicidal activity against Bursaphelenchus xylophilus in pot-grown three-year-old trees of Pinus densiflora assessed as reduction of disease incidence at 3.6 mg/seedlings treated 7 days before inoculation measured after 1 month by measuring dead seedling under greenhouse condition relative to control; format: functional; design: scale not given: the % may be the effect or the level left
[2] = tested on: Bursaphelenchus xylophilus; assay: Nematicidal activity against Bursaphelenchus xylophilus in pot-grown three-year-old trees of Pinus densiflora assessed as reduction of disease incidence at 3.6 mg/seedlings treated 7 days before inoculation measured after 1 month by measuring dead seedling under greenhouse condition; format: functional; design: scale not given: the % may be the effect or the level left
[3] = tested on: Bursaphelenchus xylophilus; assay: Nematicidal activity against Bursaphelenchus xylophilus in pot-grown three-year-old trees of Pinus densiflora assessed as reduction of disease incidence at 2% treated 3 months before inoculation measured after 9 months by measuring dead trees; format: functional; design: scale not given: the % may be the effect or the level left
[4] = tested on: Bursaphelenchus xylophilus; assay: Nematicidal activity against Bursaphelenchus xylophilus assessed as mortality at 0.34 mg/l after 48 hr; format: functional
[5] = tested on: Bursaphelenchus xylophilus; assay: Nematicidal activity against Bursaphelenchus xylophilus in pot-grown three-year-old trees of Pinus densiflora assessed as reduction of disease incidence at 2% treated 3 months before inoculation measured after 9 months by measuring dead trees relative to control; format: functional; design: scale not given: the % may be the effect or the level left
[6] = tested on: Serratia marcescens; assay: Antibacterial activity against Serratia marcescens subsp. marcescens KRICT4 at 1.6 mg/l after 24 hr; format: functional, organism-based
[7] = tested on: Bursaphelenchus xylophilus; assay: Nematicidal activity against Bursaphelenchus xylophilus in pot-grown three-year-old trees of Pinus densiflora assessed as reduction of disease incidence at 10 mg/seedlings treated 7 days before inoculation measured after 1 month by measuring dead seedling under greenhouse condition; format: functional; design: scale not given: the % may be the effect or the level left
[8] = tested on: Bursaphelenchus xylophilus; assay: as §1, with “3” for “3.6”; format: functional; design: scale not given: the % may be the effect or the level left
[9] = tested on: Bursaphelenchus xylophilus; assay: Nematicidal activity against Bursaphelenchus xylophilus in pot-grown three-year-old trees of Pinus densiflora assessed as reduction of disease incidence at 3 mg/seedlings treated 7 days before inoculation measured after 1 month by measuring dead seedling under greenhouse condition; format: functional; design: scale not given: the % may be the effect or the level left
[10] = tested on: Bursaphelenchus xylophilus; assay: Nematicidal activity against Bursaphelenchus xylophilus in pot-grown three-year-old trees of Pinus densiflora assessed as reduction of disease incidence at 10% treated 3 months before inoculation measured after 9 months by measuring dead trees; format: functional; design: scale not given: the % may be the effect or the level left
[11] = tested on: Bursaphelenchus xylophilus; assay: Nematicidal activity against Bursaphelenchus xylophilus in pot-grown three-year-old trees of Pinus densiflora assessed as reduction of disease incidence at 30 mg/seedlings treated 7 days before inoculation measured after 1 month by measuring dead seedling under greenhouse condition; format: functional; design: scale not given: the % may be the effect or the level left
[12] = tested on: Bursaphelenchus xylophilus; assay: Nematicidal activity against Bursaphelenchus xylophilus assessed as mortality at 10 mg/l after 48 hr; format: functional
[13] = tested on: Bursaphelenchus xylophilus; assay: as §1, with “10” for “3.6”; format: functional; design: scale not given: the % may be the effect or the level left
[14] = tested on: Ewingella americana; assay: Antibacterial activity against Ewingella americana KRICT5 at 1.6 mg/l after 24 hr; format: functional, organism-based
[15] = tested on: Peribacillus frigoritolerans; assay: Antibacterial activity against [Brevibacterium] frigoritolerans KRICT2 at 1.6 mg/l after 24 hr; format: functional, organism-based
[16] = tested on: Bursaphelenchus xylophilus; assay: as §1, with “30” for “3.6”; format: functional; design: scale not given: the % may be the effect or the level left
[17] = tested on: Bursaphelenchus xylophilus; assay: Nematicidal activity against Bursaphelenchus xylophilus in pot-grown three-year-old trees of Pinus densiflora assessed as reduction of disease incidence at 10% treated 3 months before inoculation measured after 9 months by measuring dead trees relative to control; format: functional; design: scale not given: the % may be the effect or the level left
[18] = tested on: Enterobacter asburiae; assay: Antibacterial activity against Enterobacter asburiae KRICT3 at 1.6 mg/l after 24 hr; format: functional, organism-based

| Structure (SMILES) | Activity [1] | Activity [2] | Activity [3] | Activity [4] | Activity [5] | Activity [6] | Activity [7] | Activity [8] | Activity [9] | Activity [10] | Activity [11] | Activity [12] | Activity [13] | Activity [14] | Activity [15] | Activity [16] | Activity [17] | Activity [18] |
| --- | --- | --- | --- | --- | --- | --- | --- | --- | --- | --- | --- | --- | --- | --- | --- | --- | --- | --- |
| CC[C@H](C)[C@H]1O[C@]2(C=C[C@@H]1C)C[C@@H]1C[C@@H](C/C=C(\C)[C@@H](O[C@H]3C[C@H](OC)[C@@H](O[C@H]4C[C@H](OC)[C@@H](O)[C@H](C)O4)[C@H](C)O3)[C@@H](C)/C=C/C=C3\CO[C@@H]4[C@H](O)C(C)=C[C@@H](C(=O)O1)[C@]34O)O2.CO[C@H]1C[C@H](O[C@H]2[C@H](C)O[C@@H](O[C@@H]3/C(C)=C/C[C@@H]4C[C@@H](C[C@]5(C=C[C@H](C)[C@@H](C(C)C)O5)O4)OC(=O)[C@@H]4C=C(C)[C@@H](O)[C@H]5OC/C(=C\C=C\[C@@H]3C)[C@]54O)C[C@@H]2OC)O[C@@H](C)[C@@H]1O [ABAMECTIN] | 71% | 20% | 6.7% | 90% | 93% |  |  |  |  |  |  |  |  |  |  |  |  |  |
| CCn1cc(C(=O)O)c(=O)c2cc3c(cc21)OCO3 [OXOLINIC ACID] |  |  |  |  |  | Active | 30% | 71% | 20% | 23.3% | 30% | 22% | 57% | Active | Active | 57% | 74% |  |
| CN(C)[C@@H]1C(O)=C(C(N)=O)C(=O)[C@@]2(O)C(O)=C3C(=O)c4c(O)cccc4[C@@](C)(O)[C@H]3[C@H](O)[C@@H]12 |  |  |  |  |  | Active |  |  |  |  |  |  |  |  |  |  |  | Active |
